From ChEMBL document CHEMBL1201862, “PubChem BioAssay data set” (2004)
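Five concentrations, 48 hours, 96-well plates. GI50 marks 50% less growth.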 The source made the active and inactive calls. Rule as the data show it: active = GI50 up to about 1.1 µM and inactive = higher.

Columns and labels:
Assay in all cases: NCI tumour cell line growth inhibition, 48 h
SF-539 = test system: SF-539
NCI-H460 = test system: NCI-H460
M19-MEL = test system: M19-MEL
LOX IMVI = test system: LOX IMVI
NCI-H23 = test system: NCI-H23
HT-29 = test system: HT-29
UACC-62 = test system: UACC-62
K562 = test system: K562
SNB-75 = test system: SNB-75
RXF 393 = test system: RXF 393
SF-295 = test system: SF-295
UACC-257 = test system: UACC-257
OVCAR-4 = test system: OVCAR-4
KM-20L2 = test system: KM-20L2
XF498 = test system: XF498
DMS-273 = test system: DMS-273
COLO 205 = test system: COLO 205
CAKI-1 = test system: CAKI-1
HOP-62 = test system: HOP-62
HL-60 = test system: HL-60
SNB-78 = test system: SNB-78
HOP-18 = test system: HOP-18
786-0 = test system: 786-0
U-251 = test system: U-251
SK-MEL-2 = test system: SK-MEL-2
EKVX = test system: EKVX
NCI-H522 = test system: NCI-H522
A549 = test system: A549
SN12C = test system: SN12C
ACHN = test system: ACHN
SNB-19 = test system: SNB-19
TK-10 = test system: TK-10
MOLT-4 = test system: MOLT-4
SK-MEL-28 = test system: SK-MEL-28
IGROV-1 = test system: IGROV-1
KM12 = test system: KM12
CCRF-CEM = test system: CCRF-CEM
SK-MEL-5 = test system: SK-MEL-5
DMS-114 = test system: DMS-114
A498 = test system: A498
DLD-1 = test system: DLD-1
SK-OV-3 = test system: SK-OV-3
HCC 2998 = test system: HCC 2998
HCT-116 = test system: HCT-116
OVCAR-8 = test system: OVCAR-8
M14 = test system: M14
LXFL 529 = test system: LXFL 529
OVCAR-5 = test system: OVCAR-5
SF-268 = test system: SF-268
HCT-15 = test system: HCT-15
SW-620 = test system: SW-620
OVCAR-3 = test system: OVCAR-3
NCI-H226 = test system: NCI-H226
Malme-3M = test system: Malme-3M
MCF7 = test system: MCF7
RPMI-8226 = test system: RPMI-8226
UO-31 = test system: UO-31
NCI/ADR-RES = test system: NCI/ADR-RES
HOP-92 = test system: HOP-92
SR = test system: SR
BT-549 = test system: BT-549
T47D = test system: T47D
PC-3 = test system: PC-3
MDA-N = test system: MDA-N
DU-145 = test system: DU-145
MDA-MB-435 = test system: MDA-MB-435

`COC1OC2COC(C)(C)OC2C(OC(C)=O)C1NC(=O)N(CCCl)N=O` (centres undefined) was tested, and the GI50 (SF-539) was 21.4 µM (inactive), the GI50 (NCI-H460) was 46.7 µM (inactive) and the GI50 (M19-MEL) was > 100 µM (inactive). For the same compound, the GI50 (LOX IMVI) was 28.7 µM (inactive), the GI50 (NCI-H23) was > 100 µM (inactive) and the GI50 (HT-29) was > 100 µM (inactive). For the same compound, the GI50 (UACC-62) was 19.3 µM (inactive), the GI50 (K562) was 54.8 µM (inactive) and the GI50 (SNB-75) was 29.1 µM (inactive). The GI50 (RXF 393) was > 100 µM (inactive), the GI50 (SF-295) was 28.8 µM (inactive) and the GI50 (UACC-257) was > 100 µM (inactive). The GI50 (OVCAR-4) was > 100 µM (inactive), the GI50 (KM-20L2) was > 100 µM (inactive) and the GI50 (XF498) was > 100 µM (inactive). For the same compound, the GI50 (DMS-273) was > 100 µM (inactive), the GI50 (COLO 205) was > 100 µM (inactive) and the GI50 (CAKI-1) was > 100 µM (inactive). The GI50 (HOP-62) was 48.1 µM (inactive), the GI50 (HL-60) was 11.2 µM (inactive) and the GI50 (SNB-78) was > 100 µM (inactive). The GI50 (HOP-18) was > 100 µM (inactive), the GI50 (786-0) was 59.4 µM (inactive) and the GI50 (U-251) was 33.7 µM (inactive). The GI50 (SK-MEL-2) was > 100 µM (inactive), the GI50 (EKVX) was > 100 µM (inactive) and the GI50 (NCI-H522) was 11.7 µM (inactive). For the same compound, the GI50 (A549) was 83 µM (inactive), the GI50 (SN12C) was > 100 µM (inactive) and the GI50 (ACHN) was > 100 µM (inactive). The GI50 (SNB-19) was 46 µM (inactive), the GI50 (TK-10) was > 100 µM (inactive) and the GI50 (MOLT-4) was 59.6 µM (inactive). For the same compound, the GI50 (SK-MEL-28) was > 100 µM (inactive), the GI50 (IGROV-1) was > 100 µM (inactive) and the GI50 (KM12) was > 100 µM (inactive). The GI50 (CCRF-CEM) was 24.3 µM (inactive), the GI50 (SK-MEL-5) was > 100 µM (inactive) and the GI50 (DMS-114) was > 100 µM (inactive). The GI50 (A498) was > 100 µM (inactive), the GI50 (DLD-1) was > 100 µM (inactive) and the GI50 (SK-OV-3) was > 100 µM (inactive). For the same compound, the GI50 (HCC 2998) was > 100 µM (inactive), the GI50 (HCT-116) was > 100 µM (inactive) and the GI50 (OVCAR-8) was > 100 µM (inactive). The GI50 (M14) was > 100 µM (inactive), the GI50 (LXFL 529) was > 100 µM (inactive) and the GI50 (OVCAR-5) was > 100 µM (inactive). The GI50 (SF-268) was 8.65 µM (inactive), the GI50 (HCT-15) was over 100 µM and the GI50 (SW-620) was > 100 µM (inactive). The GI50 (OVCAR-3) was > 100 µM (inactive), the GI50 (NCI-H226) was 47 µM (inactive) and the GI50 (Malme-3M) was > 100 µM (inactive).

`COc1ccc(-c2nc3ccc([N+](=O)[O-])cc3c(=O)[nH]2)cc1` was tested, and the GI50 (SF-539) was 14.5 µM (inactive), the GI50 (NCI-H460) was > 80 µM (inactive) and the GI50 (M19-MEL) was > 100 µM (inactive). The GI50 (LOX IMVI) was 30.5 µM (inactive), the GI50 (NCI-H23) was 29.3 µM (inactive) and the GI50 (HT-29) was > 100 µM (inactive). The GI50 (UACC-62) was 37.7 µM (inactive), the GI50 (K562) was > 100 µM (inactive) and the GI50 (SNB-75) was 12.7 µM (inactive). The GI50 (RXF 393) was 26.4 µM (inactive), the GI50 (SF-295) was 23.8 µM (inactive) and the GI50 (UACC-257) was > 96.2 µM (inactive). The GI50 (MCF7) was 46.5 µM (inactive), the GI50 (OVCAR-4) was 12.9 µM (inactive) and the GI50 (KM-20L2) was > 100 µM (inactive). The GI50 (XF498) was 22.7 µM (inactive), the GI50 (DMS-273) was 48.4 µM (inactive) and the GI50 (COLO 205) was > 100 µM (inactive). For the same compound, the GI50 (CAKI-1) was 28.8 µM (inactive), the GI50 (HOP-62) was > 45.6 µM (inactive) and the GI50 (HL-60) was > 100 µM (inactive). The GI50 (RPMI-8226) was > 61.4 µM (inactive), the GI50 (SNB-78) was 19.9 µM (inactive) and the GI50 (HOP-18) was > 62.4 µM (inactive). For the same compound, the GI50 (U-251) was 24.6 µM (inactive), the GI50 (SK-MEL-2) was 30.3 µM (inactive) and the GI50 (EKVX) was 66.1 µM (inactive). For the same compound, the GI50 (NCI-H522) was 26.9 µM (inactive), the GI50 (A549) was 53.2 µM (inactive) and the GI50 (SN12C) was 66.4 µM (inactive). For the same compound, the GI50 (SNB-19) was 20.4 µM (inactive), the GI50 (MOLT-4) was > 100 µM (inactive) and the GI50 (SK-MEL-28) was > 100 µM (inactive). The GI50 (IGROV-1) was 25.1 µM (inactive), the GI50 (KM12) was > 100 µM (inactive) and the GI50 (CCRF-CEM) was > 100 µM (inactive). For the same compound, the GI50 (SK-MEL-5) was > 100 µM (inactive), the GI50 (DMS-114) was 33 µM (inactive) and the GI50 (A498) was 29.3 µM (inactive). The GI50 (DLD-1) was 88.3 µM (inactive), the GI50 (SK-OV-3) was 13.6 µM (inactive) and the GI50 (HCC 2998) was > 100 µM (inactive). The GI50 (HCT-116) was 27.4 µM (inactive), the GI50 (OVCAR-8) was 21.1 µM (inactive) and the GI50 (UO-31) was 61.9 µM (inactive). For the same compound, the GI50 (OVCAR-5) was > 100 µM (inactive), the GI50 (SF-268) was 20.4 µM (inactive) and the GI50 (NCI/ADR-RES) was 34 µM (inactive). The GI50 (HCT-15) was over 100 µM, the GI50 (SW-620) was > 100 µM (inactive) and the GI50 (OVCAR-3) was 28.4 µM (inactive). The GI50 (NCI-H226) was 23.2 µM (inactive) and the GI50 (HOP-92) was 22 µM (inactive).

`CNC(=O)ON(C(C)=O)C(=O)NC` [CARACEMIDE] was tested, and the GI50 (SF-539) was 64.4 µM (inactive), the GI50 (NCI-H460) was 78.7 µM (inactive) and the GI50 (M19-MEL) was 112 µM (inactive). The GI50 (LOX IMVI) was 33.7 µM (inactive), the GI50 (NCI-H23) was 41.8 µM (inactive) and the GI50 (UACC-62) was 47.6 µM (inactive). For the same compound, the GI50 (SNB-75) was 70.3 µM (inactive), the GI50 (RXF 393) was 34.3 µM (inactive) and the GI50 (SF-295) was 115 µM (inactive). The GI50 (UACC-257) was 69.5 µM (inactive), the GI50 (SR) was 28.1 µM (inactive) and the GI50 (MCF7) was 51.5 µM (inactive). For the same compound, the GI50 (OVCAR-4) was 63.8 µM (inactive), the GI50 (KM-20L2) was 104 µM (inactive) and the GI50 (XF498) was 41.3 µM (inactive). The GI50 (DMS-273) was 75.2 µM (inactive), the GI50 (CAKI-1) was 55.2 µM (inactive) and the GI50 (HOP-62) was 140 µM (inactive). The GI50 (SNB-78) was 133 µM (inactive), the GI50 (HOP-18) was 97.7 µM (inactive) and the GI50 (786-0) was 11 µM (inactive). For the same compound, the GI50 (U-251) was 82.8 µM (inactive), the GI50 (SK-MEL-2) was 26 µM (inactive) and the GI50 (NCI-H522) was 21.5 µM (inactive). The GI50 (BT-549) was 19.3 µM (inactive), the GI50 (A549) was 92.3 µM (inactive) and the GI50 (SN12C) was 58.9 µM (inactive). For the same compound, the GI50 (ACHN) was 18.7 µM (inactive), the GI50 (SNB-19) was 157 µM (inactive) and the GI50 (TK-10) was 25.5 µM (inactive). For the same compound, the GI50 (SK-MEL-28) was 69.5 µM (inactive), the GI50 (T47D) was 9.38 µM (inactive) and the GI50 (PC-3) was 26.5 µM (inactive). The GI50 (IGROV-1) was 86.9 µM (inactive), the GI50 (KM12) was 59.8 µM (inactive) and the GI50 (MDA-N) was 15.8 µM (inactive). For the same compound, the GI50 (SK-MEL-5) was 40.3 µM (inactive), the GI50 (DMS-114) was 31.1 µM (inactive) and the GI50 (A498) was 87.7 µM (inactive). The GI50 (DLD-1) was 95.1 µM (inactive), the GI50 (SK-OV-3) was 106 µM (inactive) and the GI50 (HCC 2998) was > 100 µM (inactive). The GI50 (HCT-116) was 45 µM (inactive), the GI50 (OVCAR-8) was 78.3 µM (inactive) and the GI50 (M14) was 9.55 µM (inactive). The GI50 (UO-31) was 54.3 µM (inactive), the GI50 (OVCAR-5) was 126 µM (inactive) and the GI50 (DU-145) was 41.3 µM (inactive). The GI50 (SF-268) was 75 µM (inactive), the GI50 (NCI/ADR-RES) was 67.1 µM (inactive) and the GI50 (HCT-15) was 31 µM. The GI50 (SW-620) was 52 µM (inactive), the GI50 (OVCAR-3) was 54.1 µM (inactive) and the GI50 (NCI-H226) was 95.1 µM (inactive). For the same compound, the GI50 (MDA-MB-435) was 15.3 µM (inactive), the GI50 (Malme-3M) was 44.1 µM (inactive) and the GI50 (HOP-92) was 17.9 µM (inactive).
